Experiments:
Type in all cases: cell-based, human
OCI ovarian tumor lines = assay: Panel of oncology drugs: viable cells by Alamar Blue, OCI versus ATCC ovarian tumor lines; settings: 5000 cells/well, WIT-OC medium, serial dilutions, 72-144 hrs incubation
Description: In these experiments, ATCC ovarian tumor lines (SKOV3, OV90, TOV-1120 and A2780) and OCI ovarian tumor lines (FCI-P2p, OCI-P5x, OCI-P2a, OCI-C4p, OCI-P7a, OCI-05x, OCI-CSp, FCI-P1p, OCI-P9a1, OCI-P8p, OCI-P3a, OCI-P1a) were plated in WIT-OC medium (5000 cells/well) in 96 well plates. The next day serial dilutions of Taxol, Vincristine, U0126, PJ34, Adriamycin, AS703026, 5-fluorouracil, Cisplatin, PLX4720 and PJ34 were added. The number of viable cells was measured as 590/530 florescence via Alamar Blue after 72-144 hrs incubation, depending on drug. […] Thus, the methods described herein of analyzing sensitivity of a subject's cancerous tumor to an oncology drug and developing a personalized therapy for the subject can be used for any drug.

OCI and SOC cell lines = assay: Drug sensitivity experiments, response compared between OCI and SOC lines in WIT-OC medium
Description: (§1) Drug sensitivity experiments: The relative sensitivities of OCI and SOC cell lines to chemotherapy drugs was measured by seeding an equal number of cells in six replicates in 96-well black-walled clear bottom Corning plates at 3000 cells/well, and allowing attachment in WIT-OC for 12 h. Both OCI and SOC cell lines were exposed to drugs in WIT-OC medium. The cell lines were cultured in the presence of drug or vehicle control for 96 h. The fraction of metabolically active cells after drug treatment was measured by incubation with 2:10 (v/v) CellTiter-Blue reagent (Promega Cat#G8081) in media for 2 h, and the reaction was stopped by addition of 3% SDS. Fluorescence was measured in a SpectraMax M5 plate reader (Molecular Devices, CA) using SoftMax software (555EX/585EM).

[1] = tested on: OCI lines in mRNA/RPPA Cluster 1; assay: Taxol drug sensitivity (metabolic activity / viability) of OCI lines in mRNA/RPPA Cluster 1 compared to SOC lines
Description: FIG. 2: Gene expression profiling and Taxol Response of ovarian cancer cell lines identifies two major classes. A) Taxol response of OCI and SOC cell lines in mRNA/RPPA (Reverse Phase Protein Analysis) Cluster 1 vs. Cluster 2. The OCI and SOC lines were plated in triplicates in WIT-OC medium (5000 cells/well) in 96 well plates. The next day 20 nM Taxol was added and metabolic activity was measured as 590/530 fluorescence via Alamar Blue after 5 days. OCI cell lines in mRNA/RPPA Cluster 1 (blue bars), SOC cell lines in Cluster 2 (red bars), OCI lines in Cluster 2 (white bars). The results are representative of more than three four different experiments. B) Proteins that are over-expressed in OCI mRNA/RPPA Cluster 1. […] The data are presented in matrix format in which rows represent cell lines and columns represent antibody probes for each protein. The red and green colors reflect relative high and low expression levels respectively. C) Hierarchical clustering of mRNA data from OCI and SOC lines. […]
as §1, with “Both OCI and SOC cell lines were exposed to drugs in WIT-OC medium. The cell lines were cultured in the presence of drug or vehicle control for 96 h.” left out
Drug sensitivity experiments: The relative sensitivities of OCI and SOC cell lines to Taxol was measured by seeding 3000 cells/well in six replicates in 96-well black-walled clear bottom Corning plates and allowing attachment in WIT-OC for 12 h. […] The fraction of metabolically active cells after drug treatment was measured by incubation with 2:10 (v/v) CellTiter-Blue reagent (Promega Cat#G8081) in media for 2 h, and the reaction was stopped by addition of 3% SDS. […]

OCI lines in Cluster 2 = assay: Taxol drug sensitivity of the subset of OCI lines in Cluster 2; settings: WIT-OC medium; similar to SOC lines
Description: FIG. 2: Gene expression profiling and Taxol Response of ovarian cancer cell lines identifies two major classes. A) Taxol response of OCI and SOC cell lines in mRNA/RPPA (Reverse Phase Protein Analysis) Cluster 1 vs. Cluster 2. The OCI and SOC lines were plated in triplicates in WIT-OC medium (5000 cells/well) in 96 well plates. The next day 20 nM Taxol was added and metabolic activity was measured as 590/530 fluorescence via Alamar Blue after 5 days. OCI cell lines in mRNA/RPPA Cluster 1 (blue bars), SOC cell lines in Cluster 2 (red bars), OCI lines in Cluster 2 (white bars). The results are representative of more than three four different experiments. B) Proteins that are over-expressed in OCI mRNA/RPPA Cluster 1. […]
as §1, with “Both OCI and SOC cell lines were exposed to drugs in WIT-OC medium. The cell lines were cultured in the presence of drug or vehicle control for 96 h.” left out, “(555EX/585EM). […]” for “(555EX/585EM).”

O=c1[nH]cc(F)c(=O)[nH]1 [5-fluorouracil]
Resistance of OCI lines to inhibition of cell proliferation compared to standard (ATCC) cell lines (OCI ovarian tumor lines): more resistant

CC[C@]1(O)C[C@H]2CN(CCc3c([nH]c4ccccc34)[C@@](C(=O)OC)(c3cc4c(cc3OC)N(C=O)[C@H]3[C@@](O)(C(=O)OC)[C@H](OC(C)=O)[C@]5(CC)C=CCN6CC[C@]43[C@@H]65)C2)C1 [Vincristine]
Difference in drug response between OCI and SOC lines (OCI and SOC cell lines): similarly different

N#CC(=C(/N)Sc1ccccc1N)/C(C#N)=C(\N)Sc1ccccc1N [U0126]
Resistance of OCI lines to inhibition of cell proliferation compared to standard (ATCC) cell lines (OCI ovarian tumor lines): more resistant

COc1cccc2c1C(=O)c1c(O)c3c(c(O)c1C2=O)C[C@@](O)(C(=O)CO)C[C@@H]3O[C@H]1C[C@H](N)[C@H](O)[C@H](C)O1 [Adriamycin]
Resistance of OCI lines to inhibition of cell proliferation compared to standard (ATCC) cell lines (OCI ovarian tumor lines): more resistant

CC(=O)O[C@H]1C(=O)[C@@]2(C)[C@H]([C@H](OC(=O)c3ccccc3)[C@]3(O)C[C@H](OC(=O)[C@H](O)[C@@H](NC(=O)c4ccccc4)c4ccccc4)C(C)=C1C3(C)C)[C@]1(OC(C)=O)CO[C@@H]1C[C@@H]2O [Taxol]
IC50 ([1]; Homo sapiens, OCI lines plated in WIT-OC medium): 10 to 100 nM
IC50 fold higher than the IC50 values in SOC lines in mRNA/RPPA Cluster 2 ([1]; OCI Cluster 1 vs SOC Cluster 2, WIT-OC medium): 5-10 fold
Sensitivity to Taxol of OCI lines in Cluster 1 relative to SOC lines in Cluster 2 ([1]; WIT-OC medium, confirmed with a full dose-response curve): less sensitive
Sensitivity to Taxol of OCI lines in Cluster 2 compared to OCI lines in Cluster 1 (OCI lines in Cluster 2): more sensitive

CN(C)CC(=O)Nc1ccc2[nH]c(=O)c3ccccc3c2c1 [PJ34]
Resistance of OCI lines to inhibition of cell proliferation compared to standard (ATCC) cell lines (OCI ovarian tumor lines): more resistant

N.N.[Cl][Pt][Cl] [Cisplatin]
Difference in drug response between OCI and SOC lines (OCI and SOC cell lines): did not find a significant difference

Reference: patent US20160102365A1, “ASSAYS, METHODS AND KITS FOR ANALYZING SENSITIVITY AND RESISTANCE TO ANTI-CANCER DRUGS, PREDICTING A CANCER PATIENT'S PROGNOSIS, AND PERSONALIZED TREATMENT STRATEGIES” (UNIVERSITY OF MIAMI, priority 2013, published 2016)
